Measurements taken from the C3SDB collision cross section collection.
Where “and” joins values, the source holds several entries; their conditions need not be identical. Equal values may be shown once. Values belong to the compound of their own block, whether it stands above or below them.

Columns and labels:
[1] = instrument: TW, calibrated with polyalanine
[2] = instrument: TW, calibrated with phosphatidylcholines (ESI+) and phosphatidylethanolamines (ESI-)
[3] = instrument: TW, calibrated with phosphatidylcholines (ESI+) and phosphatidylethanolamines (ESI-); remark: listed apart in the source
[4] = [M-H]-; instrument: DT; stepped-field
[5] = instrument: DT, single field, calibrated with Agilent tune mix (Agilent)

SMILES: CC(C)[C@H]1OC(=O)[C@H](Cc2ccccc2)N(C)C(=O)[C@@H](C(C)C)OC(=O)[C@H](Cc2ccccc2)N(C)C(=O)[C@@H](C(C)C)OC(=O)[C@H](Cc2ccccc2)N(C)C1=O [Beauvericin]
collision cross section (N2) ([1]; [M+H]+): 283.8 Å²
collision cross section (N2) ([1]; [M+K]+): 290.3 Å²
collision cross section (N2) ([1]; [M+NH4]+): 269 Å²
collision cross section (N2) ([1]; [M+Na]+): 287.4 Å²

SMILES: CCCC[C@@H](C)[C@@H](OC(=O)C[C@@H](CC(=O)O)C(=O)O)[C@H](C[C@@H](C)CCCCCCCC[C@H](O)[C@H](C)N)OC(=O)C[C@@H](CC(=O)O)C(=O)O [Fumonisin B4]
collision cross section (N2) ([1]; [M+H]+): 255 Å²
collision cross section (N2) ([1]; [M+K]+): 264.6 Å²
collision cross section (N2) ([1]; [M+Na]+): 260.4 Å²

SMILES: CC/C=C\C/C=C\C/C=C\CCCCCCCC(=O)OC[C@H](CO[C@@H]1O[C@H](CO)[C@H](O)C(O)C1O)OC(=O)CCCCC/C=C\C/C=C\C/C=C\CC (stereo not given in full) [MGDG(16:3/18:3)]
collision cross section (N2) ([2]; [M+CH3COO]-): 280.3 Å²
collision cross section (N2) ([2]; [M+Cl]-): 273.7 Å²
collision cross section (N2) ([2]; [M+K]+): 273.6 Å²
collision cross section (N2) ([2]; [M+Na]+): 273.1 Å²
collision cross section (N2) ([2]; [M-H]-): 269.9 Å²

SMILES: COc1c(C)c2c(c(O)c1C/C=C(\C)CCC(=O)O)C(=O)OC2 [Mycophenolic acid]
collision cross section (N2) ([1]; [M+NH4]+): 176 Å²

SMILES: CC[C@H](C)[C@H]1C(=O)O[C@H](C(C)C)C(=O)N(C)[C@@H]([C@@H](C)CC)C(=O)O[C@H](C(C)C)C(=O)N(C)[C@@H]([C@@H](C)CC)C(=O)O[C@H](C(C)C)C(=O)N1C [Enniatin A]
collision cross section (N2) ([1]; [M+H]+): 257.9 Å²
collision cross section (N2) ([1]; [M+K]+): 264.7 Å²
collision cross section (N2) ([1]; [M+NH4]+): 264 Å²
collision cross section (N2) ([1]; [M+Na]+): 262.4 Å²

SMILES: CCCC[C@@H](C)[C@@H](OC(=O)CC(CC(=O)O)C(=O)O)[C@H](C[C@@H](C)C[C@H](O)CCCCCC[C@@H](O)[C@H](C)N)OC(=O)CC(CC(=O)O)C(=O)O (stereo not given in full) [Fumonisin B3]
collision cross section (N2) ([1]; [M+H]+): 258 Å²
collision cross section (N2) ([1]; [M+K]+): 264.5 Å²
collision cross section (N2) ([1]; [M+Na]+): 259.2 Å²

SMILES: C=C(C)C(=O)/C(=C/C(=O)O)OC [Penicillic acid]
collision cross section (N2) ([1]; [M+H]+): 131 Å²

SMILES: C=CC(C)(C)[C@@]12C=C(O)C(=O)N3/C(=C/c4cnc[nH]4)C(=O)N[C@]31N(OC)c1ccccc12 [Meleagrin]
collision cross section (N2) ([1]; [M+H]+): 201 Å²

SMILES: C[C@H]1CCC[C@H](O)CCC/C=C/c2cc(O)cc(O)c2C(=O)O1 [alpha-zearalenol]
collision cross section (N2) ([1]; [M-H]-): 173 Å²

SMILES: COc1cc2c(c3oc(=O)c4c(c13)CCC4=O)[C@@H]1CCO[C@@H]1O2 [Aflatoxin B2]
collision cross section (N2) ([1]; [M+H]+): 162 Å²
collision cross section (N2) ([1]; [M+K]+): 181.4 Å²
collision cross section (N2) ([1]; [M+Na]+): 176.8 Å²

SMILES: O=C1C=C2C(=CCOC2O)O1 (stereo not given) [Patulin]
collision cross section (N2) ([1]; [M+H3C2O2]-): 142 Å²

SMILES: Cc1cc(O)cc2oc(=O)c3c(O)cc(O)cc3c12 [Alternariol]
collision cross section (N2) ([1]; [M-H]-): 146 Å²

SMILES: CC[C@H](C)[C@H]1C(=O)O[C@H](C(C)C)C(=O)N(C)[C@@H]([C@@H](C)CC)C(=O)O[C@H](C(C)C)C(=O)N(C)[C@@H](C(C)C)C(=O)O[C@H](C(C)C)C(=O)N1C [Enniatin A1]
collision cross section (N2) ([1]; [M+H]+): 252.2 Å²
collision cross section (N2) ([1]; [M+K]+): 257.9 Å²
collision cross section (N2) ([1]; [M+NH4]+): 259 Å²
collision cross section (N2) ([1]; [M+Na]+): 258 Å²

SMILES: CCCC[C@@H](C)[C@@H](OC(=O)C[C@@H](CC(=O)O)C(=O)O)[C@H](C[C@@H](C)C[C@H](O)CCCC[C@@H](O)C[C@H](O)[C@H](C)N)OC(=O)C[C@@H](CC(=O)O)C(=O)O [Fumonisin B1]
collision cross section (N2) ([1]; [M+H]+): 258 Å²
collision cross section (N2) ([1]; [M+K]+): 269 Å²
collision cross section (N2) ([1]; [M+Na]+): 264.4 Å²

The remaining lines, values ahead:

collision cross section (N2) ([2]; [M-H]-): 277.9 Å²
SMILES: CCCCCCCCCCCCCCCCCCCCC(=O)OC[C@H](COP(=O)(O)OC[C@@H](O)CO)OC(=O)CCCCCCCCCCCCCC [PG(36:0)]

collision cross section (N2) ([3]; [M+Na]+): 274.1 Å²
collision cross section (N2) ([3]; [M-H]-): 262.5 Å²
collision cross section (N2) ([2]; [M-H]-): 263.3 Å²
collision cross section (N2) [4]: 270.4 Å²
collision cross section (N2) ([5]; [M-H]-): 263.3 Å²
SMILES: CCCCCCCC/C=C\CCCCCCCCCC(=O)O[C@H](COC(=O)CCCCCCCCCCC)COP(=O)(O)OC[C@@H](O)CO [PG(32:1)]

collision cross section (N2) ([2]; [M-H]-): 251.2 Å²
SMILES: CCCC/C=C\CCCCCCCC(=O)O[C@H](COC(=O)CCCCCCCCCCCCC)COP(=O)(O)OC[C@@H](O)CO [PG(28:1)]

collision cross section (N2) ([2]; [M-H]-): 263.4 Å²
SMILES: CCCC/C=C\C/C=C\CCCCCCCC(=O)O[C@H](CO/C=C\CCCCCCCCCCCCCC)COP(=O)(O)OC[C@@H](O)CO [PG(p33:2)]

collision cross section (N2) ([2]; [M+H]+): 302.8 Å²
SMILES: CCCCCC/C=C\CCCCCCCCCC(=O)OCC(COP(=O)([O-])OCC(O)COC(=O)C(N)CCCC[NH3+])OC(=O)CCCCCCCCC/C=C\CCCCCC (stereo not given) [LysPG(36:2)]

collision cross section (N2) ([2]; [M-H]-): 252.2 Å²
SMILES: CCCC/C=C\CCCCCCCC(=O)O[C@H](CO/C=C\CCCCCCCCCCCCC)COP(=O)(O)OC[C@@H](O)CO [PG(p29:1)]

collision cross section (N2) ([2]; [M+H]+): 299.8 Å²
SMILES: CCCCCCCCCCCCCCCCCC(=O)OC(COC(=O)CCCCCCCCCCCCCC)COP(=O)([O-])OCC(O)COC(=O)C(N)CCCC[NH3+] (stereo not given) [LysPG(33:0)]

collision cross section (N2) ([2]; [M+H]+): 300.8 Å²
SMILES: CCCCCC/C=C\CCCCCCCCCC(=O)OCC(COP(=O)([O-])OCC(O)COC(=O)C(N)CCCC[NH3+])OC(=O)CCCCCCCC/C=C\CCCCCC (stereo not given) [LysPG(35:2)]

collision cross section (N2) ([3]; [M+Na]+): 281.1 Å²
collision cross section (N2) ([3]; [M-H]-): 268.9 Å²
collision cross section (N2) ([2]; [M-H]-): 269.9 Å²
collision cross section (N2) ([5]; [M+H]+): 286.8 Å²
collision cross section (N2) ([5]; [M+NH4]+): 287.3 Å²
collision cross section (N2) ([5]; [M-H]-): 270.2 Å²
SMILES: CCCCCCCCCC/C=C\CCCCCCCCCC(=O)O[C@H](COC(=O)CCCCCCCCCCC)COP(=O)(O)OC[C@@H](O)CO [PG(34:1)]

collision cross section (N2) ([2]; [M-H]-): 262.1 Å²
SMILES: CCCC/C=C\CCCCCCCC(=O)O[C@H](CO/C=C\CCCCCCCCCCCCCCCC)COP(=O)(O)OC[C@@H](O)CO [PG(p32:1)]

collision cross section (N2) ([2]; [M+NH4]+): 314.2 Å²
collision cross section (N2) ([2]; [M+Na]+): 311.8 Å²
SMILES: CCCCCCCCCCCCCCCCC(=O)OC[C@H](CO[C@@H]1O[C@H](CO[C@H]2O[C@H](CO)[C@H](O)C(O)C2O)[C@H](O)C(O)C1O)OC(=O)CCCCCCCCCCCCCCCC (stereo not given in full) [DGDG(34:0)]

collision cross section (N2) ([2]; [M+NH4]+): 302.4 Å²
collision cross section (N2) ([2]; [M+Na]+): 299.6 Å²
SMILES: CCCCCCCCCCCCCCC(=O)OC[C@H](CO[C@@H]1O[C@H](CO[C@H]2O[C@H](CO)[C@H](O)C(O)C2O)[C@H](O)C(O)C1O)OC(=O)CCCCCCCCCCCCCC (stereo not given in full) [DGDG(30:0)]

collision cross section (N2) ([2]; [M+NH4]+): 302.2 Å²
collision cross section (N2) ([2]; [M+Na]+): 298 Å²
SMILES: CCCCCCCCCCCCC=CCC(=O)OC[C@H](CO[C@@H]1O[C@H](CO[C@H]2O[C@H](CO)[C@H](O)C(O)C2O)[C@H](O)C(O)C1O)OC(=O)CC=CCCCCCCCCCCCC (stereo not given in full) [DGDG(32:2)]

collision cross section (N2) ([2]; [M-H]-): 248.2 Å²
SMILES: CCCCCCCCCCCCCCCCCC(=O)O[C@H](COC(=O)CCCCCCCCCCCC)COP(=O)(O)O [PA(31:0)]

collision cross section (N2) ([3]; [M+Na]+): 282.2 Å²
collision cross section (N2) ([3]; [M-H]-): 269 Å²
collision cross section (N2) ([2]; [M-H]-): 270.8 Å²
collision cross section (N2) [4]: 277.6 Å²
SMILES: CCCCCCCCCCCCCCCCCCCC(=O)OC[C@H](COP(=O)(O)OC[C@@H](O)CO)OC(=O)CCCCCCCCCCCCC [PG(34:0)]

collision cross section (N2) ([2]; [M-H]-): 256.3 Å²
collision cross section (N2) [4]: 259.2 Å²
SMILES: CCCCCCCCCC/C=C\CCCCCCCCCC(=O)O[C@H](COC(=O)CCCCCCCCCCC)COP(=O)(O)O [PA(16:0/18:1)]

collision cross section (N2) ([3]; [M+Na]+): 284.7 Å²
collision cross section (N2) ([3]; [M-H]-): 274.3 Å²
collision cross section (N2) ([2]; [M-H]-): 274.9 Å²
collision cross section (N2) [4]: 282.3 Å² and 281.9 Å²
collision cross section (N2) ([5]; [M+H]+): 288.9 Å²
collision cross section (N2) ([5]; [M+Na]+): 286 Å²
SMILES: CCCC/C=C\CCCCCCCC(=O)OC[C@H](COP(=O)(O)OC[C@@H](O)CO)OC(=O)CCCCCCCCC/C=C\CCCCCCCCCC [PG(36:2)]

collision cross section (N2) ([2]; [M+H]+): 299.6 Å²
SMILES: CCCCCC/C=C/CCCCCCCCCC(=O)OCC(COP(=O)([O-])OCC(O)COC(=O)C(N)CCCC[NH3+])OC(=O)CCCCCCCCCCCCCCC (stereo not given) [LysPG(34:1)]

collision cross section (N2) ([2]; [M+H]+): 308.7 Å²
SMILES: CCCCCCCCCCCCCCCCCCCCC(=O)OC(COC(=O)CCCCCCCCCCCCCC)COP(=O)([O-])OCC(O)COC(=O)C(N)CCCC[NH3+] (stereo not given) [LysPG(36:0)]
